Measured values published in ChEMBL document CHEMBL1201862, “PubChem BioAssay data set” (2004).
Active and inactive are the calls of the source. For most assays here, no stated cut-off is given here; in the data, actives have a measured EC50 and inactives only a lower limit.

Key:
[1] = luciferase reporter signal reduction – luminescence, H4-C neuroglioblastoma cells, dose response (AID 2458); assay type: functional, cell-based;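 further: H4 neuroglioblastoma cells stably carrying a luciferase reporter gene fusion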
BJ [2] = experiment: BJ-TERT fibroblast viability loss – cell-based, RAS-independent, luminescence, dose response (AID 1933); assay type: functional; conditions: Homo sapiens
cells = assay type: functional, cell-based
[3] = Luminescence Cell-Based Dose Response HTS to Identify Inhibitors of 5'UTR Stem-Loop Driven Prion Protein mRNA Translation in H4 Neuroglioblastoma Cells. [Related pubchem assays: 1827 (Project Summary), 1813 (Primary HTS)]; assay type: functional
[4] = alpha-synuclein stem-loop luciferase translation blockers – H4 neuroglioma cells, luminescence, confirmation (AID 1988); assay type: functional, cell-based
BJ [5] = experiment: cells; assay type: functional, cell-based; conditions: Homo sapiens
BJ [6] = experiment: BJ-TERT-LT-ST fibroblast viability loss – cell-based, RAS-independent, luminescence, dose response (AID 1935); assay type: functional; conditions: Homo sapiens;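 further: BJ fibroblasts immortalized with TERT plus LT and ST oncogenes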
[7] = DRD fibroblast viability loss – cell-based, non-viral oncogenic, luminescence, dose response (AID 1934); assay type: functional; conditions: Homo sapiens
[8] = alpha-synuclein stem-loop translation blockers – luminescence, H4 neuroglioblastoma cells, dose confirmation, confirmation (AID 2454); assay type: functional, cell-based;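 further: H4 neuroglioblastoma cells carrying an alpha-synuclein 5'UTR luciferase reporter; potency for inhibition of the luciferase signal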
[9] = molecular target: T1, Microphthalmia-associated transcription factor (Homo sapiens, UniProt O75030); experiment: reducers of TRPM1 reporter luminescence, concentration series – cell-based, SK-MEL-5, cherry-picked, set 3, MITF inhibitor project, dose response (AID 493073); assay type: functional;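 further: SK-MEL-5 melanoma cells with luciferase driven by the MITF target TRPM1 promoter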
T1 sequence (O75030 whole entry): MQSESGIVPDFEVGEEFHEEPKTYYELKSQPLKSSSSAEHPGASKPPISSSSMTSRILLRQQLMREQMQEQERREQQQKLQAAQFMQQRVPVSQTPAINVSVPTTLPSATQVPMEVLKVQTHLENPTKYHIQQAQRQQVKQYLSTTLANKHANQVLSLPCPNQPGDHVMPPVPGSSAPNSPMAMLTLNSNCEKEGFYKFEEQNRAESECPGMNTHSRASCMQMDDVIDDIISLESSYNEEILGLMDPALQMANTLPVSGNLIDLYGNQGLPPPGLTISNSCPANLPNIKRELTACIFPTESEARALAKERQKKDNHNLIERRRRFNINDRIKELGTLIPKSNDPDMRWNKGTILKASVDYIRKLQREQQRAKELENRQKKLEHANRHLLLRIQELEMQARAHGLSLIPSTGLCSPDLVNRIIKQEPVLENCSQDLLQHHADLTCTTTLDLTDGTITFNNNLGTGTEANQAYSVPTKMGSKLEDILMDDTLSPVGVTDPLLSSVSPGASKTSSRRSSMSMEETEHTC

BJ [10] = experiment: growth inhibition of engineered Ras-driven BJ cells – cell-based, alamar blue fluorescence, cherrypicked samples, dose response (AID 2631); assay type: functional; conditions: Homo sapiens;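 further: confirmatory dose-response assay in RAS-dependent BJ fibroblasts engineered with TERT, LT and ST, with cytotoxicity read by fluorescence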
Estrogen receptor = molecular target: T2, Estrogen receptor (Homo sapiens, UniProt P03372);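 further: potency for inhibiting coactivator peptide recruitment to the receptor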
T2 sequence (P03372 whole entry): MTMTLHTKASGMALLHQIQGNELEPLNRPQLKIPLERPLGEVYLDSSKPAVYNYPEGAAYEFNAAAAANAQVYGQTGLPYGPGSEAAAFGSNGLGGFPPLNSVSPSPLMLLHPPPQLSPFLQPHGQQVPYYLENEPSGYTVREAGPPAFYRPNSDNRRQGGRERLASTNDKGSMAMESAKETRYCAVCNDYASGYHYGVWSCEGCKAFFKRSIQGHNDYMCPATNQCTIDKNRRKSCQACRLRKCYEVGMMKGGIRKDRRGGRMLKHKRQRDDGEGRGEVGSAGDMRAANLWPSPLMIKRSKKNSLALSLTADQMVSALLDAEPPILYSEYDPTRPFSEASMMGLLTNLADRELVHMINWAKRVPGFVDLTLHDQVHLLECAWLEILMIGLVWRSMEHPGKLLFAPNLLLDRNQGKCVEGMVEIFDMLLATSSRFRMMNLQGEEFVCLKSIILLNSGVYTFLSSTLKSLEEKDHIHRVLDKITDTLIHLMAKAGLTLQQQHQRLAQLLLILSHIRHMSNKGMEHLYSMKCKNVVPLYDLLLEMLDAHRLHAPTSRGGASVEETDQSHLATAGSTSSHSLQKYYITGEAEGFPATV

Estrogen receptor beta = Estrogen receptor beta (Homo sapiens, UniProt Q92731);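 further: recombinant ER-beta bound to coactivator SRC1 peptide in presence of estradiol agonist; inhibitors block coactivator peptide binding and lower the FRET signal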
Chain of Estrogen receptor beta (Q92731 whole entry): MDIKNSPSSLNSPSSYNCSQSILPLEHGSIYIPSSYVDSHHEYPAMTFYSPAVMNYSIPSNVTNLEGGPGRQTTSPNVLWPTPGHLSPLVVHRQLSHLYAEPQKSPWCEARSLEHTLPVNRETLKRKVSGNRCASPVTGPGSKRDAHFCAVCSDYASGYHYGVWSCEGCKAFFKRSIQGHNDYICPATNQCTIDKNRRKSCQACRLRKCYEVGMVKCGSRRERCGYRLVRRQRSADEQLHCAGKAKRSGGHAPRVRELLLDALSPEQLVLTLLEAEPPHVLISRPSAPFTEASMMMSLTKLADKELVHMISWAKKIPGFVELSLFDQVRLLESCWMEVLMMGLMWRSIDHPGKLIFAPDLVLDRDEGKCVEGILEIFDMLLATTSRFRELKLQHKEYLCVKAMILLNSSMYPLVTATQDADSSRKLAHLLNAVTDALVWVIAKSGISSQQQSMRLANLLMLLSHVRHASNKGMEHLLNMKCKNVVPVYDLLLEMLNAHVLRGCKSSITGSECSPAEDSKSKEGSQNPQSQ

Vero = experiment: viability of Vero cells under compound – cytotoxicity control for flavivirus capping enzyme inhibitors (AID 588742); assay type: functional; conditions: Chlorocebus sabaeus
[11] = microbe, parasite or virus in culture; assay type: functional; conditions: Mycobacterium tuberculosis
[12] = Luminescence Cell-Based Dose Retest to Confirm Inhibitors of Cancer Stem Cells. [Related pubchem assays (depositor defined):AID2717, AID2721]; assay type: functional; conditions: Homo sapiens
[13] = viability loss of HMLE_sh_eGFP cells – cell-based, luminescence, counter-screen for HMLE_sh_ECad selective toxicity project, dose response (AID 463074); assay type: functional, Homo sapiens;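 further: HMLE human mammary epithelial cells expressing control shRNA against eGFP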
INS1 = experiment: INS-1E survival protection against cytokine death – cell-based, luminescence, retest, dose response (AID 449756); assay type: functional; conditions: Rattus norvegicus;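 further: cell death triggered by IL-1 beta plus TNF-alpha plus IFN-gamma mixture; protective hits raise ATP signal compared with cytokine alone wells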
Paired box protein Pax-8 = Paired box protein Pax-8 (Homo sapiens, UniProt Q06710); experiment: PAX8 transcriptional activity inhibition in RMG-I – RMG-I cells, luciferase, cherry-pick, dose response (AID 687027); assay type: functional, cell-based;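 further: luciferase reporter driven by Pax8 target thyroperoxidase promoter measured by SteadyGlo luminescence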
Chain of Paired box protein Pax-8 (Q06710 whole entry): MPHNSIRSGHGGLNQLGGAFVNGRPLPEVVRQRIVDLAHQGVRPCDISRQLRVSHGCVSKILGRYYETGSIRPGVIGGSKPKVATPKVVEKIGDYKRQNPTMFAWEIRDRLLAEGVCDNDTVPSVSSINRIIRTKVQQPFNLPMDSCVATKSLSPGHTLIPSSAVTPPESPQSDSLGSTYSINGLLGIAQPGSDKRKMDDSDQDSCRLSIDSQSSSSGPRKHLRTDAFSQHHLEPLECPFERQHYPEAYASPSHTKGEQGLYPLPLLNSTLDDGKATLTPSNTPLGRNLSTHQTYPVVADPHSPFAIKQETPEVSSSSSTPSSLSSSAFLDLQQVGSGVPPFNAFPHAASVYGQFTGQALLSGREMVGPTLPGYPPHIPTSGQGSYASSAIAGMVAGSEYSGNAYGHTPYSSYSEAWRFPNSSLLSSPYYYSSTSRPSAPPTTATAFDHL

Compound | EC50 [1] | EC50 (BJ [2]) | EC50 (cells) | EC50 [3] | EC50 [4] | EC50 (BJ [5]) | EC50 (BJ [6]) | EC50 [7] | EC50 [8] | AC50 [9] | EC50 (BJ [10]) | IC50 (Estrogen receptor) | IC50 (Estrogen receptor beta) | CC50 (Vero) | CC50 [11] | AC50 [12] | AC50 [13] | AC50 (INS1) | AC50 (Paired box protein Pax-8)
COc1cc2c(c(OC)c1OC)-c1ccc(N(C)CC(OC)OC)c(=O)cc1[C@@H](NC(C)=O)CC2 | > 12 µM (not active) | 2.59 µM (inconclusive) | > 12 µM (not active) | 8.84 µM (active) | < 0.1 µM (active) | 3.06 µM (active) | 20 µM (inconclusive) | 2.35 µM (active) | 1.22 µM (active) | 2.04 µM (active) | 0.117 µM (active) | – | – | – | – | – | – | – | –
O=C(Nc1ccc(N2CCCC2)cc1)C(Cl)c1ccccc1 (centres undefined) | – | – | – | – | – | – | – | – | – | – | – | > 50 µM (not active) | > 50 µM (not active) | > 40 µM (active) | – | – | – | – | –
CCCCn1cnc2c(c(-c3ccccc3)c(-c3ccccc3)n2Cc2ccco2)c1=N | – | 7.71 µM (active) | – | – | – | 36.1 µM (active) | 11.1 µM (inconclusive) | 9.06 µM (active) | – | – | 76.5 µM (active) | – | – | – | > 40 µM (active) | 49.8 µM (active) | 50.9 µM (active) | > 260 µM (inactive) | 9.7 µM (active)
